According to US20150099012A1, “METHODS FOR ACTIVATING RETROVIRUS IN LATENT INFECTED CELLS, AND COMPOUNDS FOR USE THEREIN” (Erasmus University Medical Center Rotterdam, priority 2012, published 2015):
Entries after “also recorded” stand apart in the source; their conditions may differ.

Assays:
HIV LTR DHS1 and nuc-1 [1] = assay: FAIRE DNA accessibility at the HIV LTR; assay type: cell-based; conditions: latent J-Lat cells, 12 hours after stimulation; FIG. 4B
Procedure: (§1) (A) Schematic representation of strategy to explore nucleosome position changes and enrichment of LEF/b-catenin at the HIV LTR in its repressed state and after Wnt activation. Jurkat latent cells at 0, and 12 hours after stimulation with LiCl, BIO VPA, or LiCl and VPA together were crosslinked and sonicated to yield DNA fragments of approximately 150 bp. DNA accessibility was monitored by formaldehyde-assisted isolation of regulatory elements (FAIRE) while nucleosome occupancy was determined by histone H2B Chromatin immunoprecipitations (ChIPs). To determine enrichment of LEF, b-catenin, or Histone Acetyl H3, we performed ChIPs with antibodies specific for LEF1, b-catenin, Ac H3. (B) Wnt activation by treatment with LiCl/BIO is accompanied by an increase in DNA accessibility over the DHS1 of the HIV LTR. […] FAIRE results are presented as fold change respective to the unstimulated value (normalized to 1) for each primer pair. (D) b-catenin while absent from the LTR in the repressed state, directly binds to the LTR upon LiCl/BIO activation. LEF1 binding, while present on the LTR in the repressed state is enriched upon LiCl/BIO treatment. […] Immunoprecipitated DNA from ChIPs and phenol:chloroform extracted DNA from FAIRE were analyzed by qPCR using primer pairs specific for the HIV LTR nuc-0, DHS1, nuc-1, and nuc-2 regions, and control region amplifying upstream of the Axin2 gene. […]

[2] = test system: b-catenin recruitment to HIV LTR; assay: b-catenin ChIP at the HIV LTR in J-Lat cells; assay type: cell-based; conditions: latent J-Lat cells; FIG. 4D
Procedure: as §1

[3] = test system: histone acetylation on the HIV LTR; assay: Histone Acetyl H3 ChIP at the HIV LTR in J-Lat cells; assay type: cell-based; conditions: latent J-Lat cells; FIG. 4D
Procedure: as §1

HIV LTR DHS1 and nuc-1 [4] = assay: Histone H2B ChIP nucleosome occupancy at the HIV LTR; assay type: cell-based; conditions: latent J-Lat cells, 12 hours after stimulation; FIG. 4C
Procedure: as §1

LEF1 binding at HIV LTR = assay: LEF1 ChIP at the HIV LTR in J-Lat cells; assay type: cell-based; conditions: latent J-Lat cells; FIG. 4D
Procedure: as §1

latent HIV LTR = assay: Activation of latent HIV LTR in J-Lat/S-Lat latently infected cell lines (GFP reporter, FACS); assay type: cell-based, HIV-1; conditions: single agents; J-Lat/S-Lat or 1G5 cells; FIG. 5
Procedure: A) S-Lat 46, J-Lat P32, J-Lat A2, J-Lat 11.1, S-Lat 24, S-Lat 9 and […], and GFP expression was monitored by FACS analysis to determine activation of the latent LTR. B) J-Lat P32 and (C) S-Lat 30 Jurkats and SupT1 cell lines harbouring latently infected HIV were either untreated or treated with 2, 5 or 10 mM LiCl as indicated. Expression of HIV-LTR driven P24 and GFP, and endogenous Wnt target genes AXIN2, MMP9, TCF1, as well as control GAPDH and NFkB target genes TLR2 and ICAM1 was monitored by qRT-PCR 72 hours after treatment. Expression data are presented as fold induction normalized to Cyclophillin A control.
Expression data are presented as fold induction normalized to Cyclophillin A control.

In the case of `O=C1Nc2cc(Br)ccc2/C1=C1/Nc2ccccc2/C1=N\O` [BIO, (2′Z,3′E)-6-Bromoindirubin-3′-oxime], the “DNA accessibility at the HIV LTR (FAIRE)” value (HIV LTR DHS1 and nuc-1 [1]) is reported as “increase accessibility”, the “recruitment of b-catenin to the HIV LTR (ChIP)” value [2] is reported as “recruitment of b-catenin to LTR DHS1 and nuc-1” and the “histone acetylation on the LTR (Ac H3 ChIP)” value [3] is reported as “histone acetylation is increased on the LTR”. For the same compound, the “nucleosome occupancy / histone density at the HIV LTR (H2B ChIP)” value (HIV LTR DHS1 and nuc-1 [4]) was “decreased nucleosome occupancy at DHS1”, the “enrichment of LEF1 at the HIV LTR (ChIP)” value (LEF1 binding at HIV LTR) was “enrichment of LEF1 at the HIV LTR” and the “de-repression / activation of latent HIV LTR” value (latent HIV LTR) was “de-repression of latent HIV LTR; also recorded: activates the LTR in latently HIV infected cells”.
